Measurements as given in ChEMBL document CHEMBL1153855, “Discovery of a new family of bis-8-hydroxyquinoline substituted benzylamines with pro-apoptotic activity in cancer cells: synthesis, structure-activity relationship, and action mechanism studies” (2009).
The source made the active and inactive calls. No cut-off for these calls is given here.

Key:
[1] = Inhibition of trypsin-like activity in proteasome; assay type: subcellular
[2] = tested on: HL-60; assay: Antiproliferative activity against human HL60 cells at 10 uM after 24 hrs by trypan blue exclusion assay in absence of CuCl2; assay type: functional, cell-based
[3] = tested on: HL-60; assay: Cytotoxicity against human HL60 cells; assay type: functional
[4] = species: Ovis aries; assay: Inhibition of lamb brain tubulin assembly at 37 deg C
[5] = tested on: HL-60; assay: Induction of apoptosis in human HL60 cells assessed as activation of caspase 9 at 1 uM; assay type: functional, cell-based
[6] = tested on: HL-60; assay: Induction of apoptosis in human HL60 cells assessed as activation of caspase 8 at 1 uM; assay type: functional, cell-based
[7] = Cytotoxicity against human KB-3-1 cells after 72 hrs by MTS assay; assay type: functional; conditions: KB 3-1, 72 h
[8] = tested on: SF-268; assay: Cytotoxicity against human SF268 cells; assay type: functional
[9] = tested on: HCT-116; assay: Cytotoxicity against human HCT116 cells; assay type: functional
[10] = tested on: HepG2; assay: Cytotoxicity against human HepG2 cells; assay type: functional
[11] = tested on: K562; assay: Cytotoxicity against human K562 cells; assay type: functional
[12] = tested on: HL-60; assay: Induction of apoptosis in human HL60 cells assessed as activation of caspase 3/7 at 1 uM; assay type: functional, cell-based
[13] = tested on: HL-60; assay: Induction of apoptosis in human HL60 cells assessed as activation of caspase 3/7 at 0.1 uM; assay type: functional, cell-based
[14] = tested on: HL-60; assay: Induction of apoptosis in human HL60 cells assessed as activation of caspase 3/7 at 0.01 uM; assay type: functional, cell-based
[15] = tested on: SK-OV-3; assay: Cytotoxicity against human SKOV3 cells; assay type: functional
[16] = species: Ovis aries; assay: Inhibition of lamb brain microtubule disassembly at 4 deg C
[17] = tested on: HL-60; assay: Antiproliferative activity against human HL60 cells at 10 uM after 24 hrs by trypan blue exclusion assay in presence of CuCl2; assay type: functional, cell-based
[18] = tested on: HL-60; assay: Induction of apoptosis in human HL60 cells assessed as activation of caspase 3/7; assay type: functional, cell-based
[19] = tested on: HL-60; assay: Induction of apoptosis in human HL60 cells assessed as PARP cleavage at 10 uM after 24 hrs by Western blot; assay type: functional, cell-based
[20] = Cytotoxicity against human KB3 cells; assay type: functional
[21] = tested on: HCT-15; assay: Cytotoxicity against human HCT15 cells expressing P-gp; assay type: functional
[22] = tested on: A549; assay: Cytotoxicity against human A549 cells; assay type: functional
[23] = tested on: PC-3; assay: Cytotoxicity against human PC3 cells; assay type: functional
[24] = Inhibition of chymotrypsin-like activity in proteasome; assay type: subcellular
[25] = tested on: MCF7; assay: Cytotoxicity against human MCF7 cells; assay type: functional
[26] = tested on: MCF7; assay: Cytotoxicity against multidrug-resistant human MCF7 cells expressing P-gp; assay type: functional

Oc1ccc(CN(Cc2ccc(C(F)(F)F)cc2)Cc2ccc(O)c3ncccc23)c2cccnc12
Activity [1]: inactive | Activity [2]: inactive | CC50 [3]: 0.0109 µM | Activity [4]: inactive | Activity [5]: inactive | Activity [6]: inactive | CC50 [7]: 0.0013 µM | CC50 [8]: 0.091 µM | CC50 [9]: 0.001 µM | CC50 [10]: 0.0228 µM | CC50 [11]: 0.0052 µM | Activity [12]: Active | Activity [13]: Active | Activity [14]: inactive | CC50 [15]: 0.003 µM | Activity [16]: Active | Activity [17]: Active | Activity [18]: Dose-dependent effect | Activity [19]: inactive | CC50 [20]: 0.0015 µM | CC50 [21]: 0.0008 µM | CC50 [22]: 0.0009 µM | CC50 [23]: 0.206 µM | Activity [24]: inactive | CC50 [25]: 0.0012 µM | CC50 [26]: 0.0047 µM

Cc1ccc([C@H](C)N(Cc2ccc(O)c3ncccc23)C(=O)OC(C)(C)C)cc1
CC50 [7]: > 1 µM

Oc1ccc(CN(Cc2ccccc2)Cc2ccc(O)c3ncccc23)c2cccnc12
CC50 [7]: 0.015 µM

Cc1ccc([C@H](C)N(Cc2ccc(O)c3ncccc23)Cc2ccc(O)c3ncccc23)cc1
CC50 [7]: 0.041 µM

O=[N+]([O-])c1ccc(CN(Cc2ccc(O)c3ncccc23)Cc2ccc(O)c3ncccc23)cc1
CC50 [7]: 0.042 µM

CC(=O)O[C@@]12CO[C@@H]1C[C@H](O)[C@@]1(C)C(=O)[C@H](O)C3=C(C)[C@@H](OC(=O)[C@H](O)[C@@H](NC(=O)OC(C)(C)C)c4ccccc4)C[C@@](O)([C@@H](OC(=O)c4ccccc4)[C@H]21)C3(C)C [DOCETAXEL]
CC50 [7]: 0.00025 µM

CC(C)(C)OC(=O)N(Cc1ccccc1C(F)(F)F)Cc1ccc(O)c2ncccc12
CC50 [7]: 1 µM

Cc1ccc(CNCc2ccc(O)c3ncccc23)cc1
CC50 [7]: > 10 µM

Oc1ccc(CNCc2cccc3ccccc23)c2cccnc12
CC50 [7]: > 1 µM

Oc1c(I)cc(Cl)c2cccnc12
Activity [2]: inactive

Oc1ccc(CN(Cc2ccccc2C(F)(F)F)Cc2ccc(O)c3ncccc23)c2cccnc12
CC50 [7]: 0.123 µM

Oc1ccc(CNCc2ccc(C(F)(F)F)cc2)c2cccnc12
CC50 [7]: 10 µM

CC(C)(C)OC(=O)N(Cc1ccc(C(F)(F)F)cc1)Cc1ccc(O)c2ncccc12
CC50 [7]: 10 µM

CC(=O)O[C@H]1C(=O)[C@@]2(C)[C@H]([C@H](OC(=O)c3ccccc3)[C@]3(O)C[C@H](OC(=O)[C@H](O)[C@@H](NC(=O)c4ccccc4)c4ccccc4)C(C)=C1C3(C)C)[C@]1(OC(C)=O)CO[C@@H]1C[C@@H]2O [PACLITAXEL]
CC50 [20]: 0.0001 µM

Cc1ccc([C@H](C)NCc2ccc(O)c3ncccc23)cc1
CC50 [7]: > 1 µM

Cc1ccc(CN(Cc2ccc(O)c3ncccc23)Cc2ccc(O)c3ncccc23)cc1
Activity [1]: inactive | Activity [2]: inactive | CC50 [3]: 0.0327 µM | Activity [5]: inactive | Activity [6]: inactive | CC50 [7]: 0.0026 µM | CC50 [8]: 0.178 µM | CC50 [9]: 0.0032 µM | CC50 [10]: 0.0521 µM | CC50 [11]: 0.0408 µM | Activity [12]: Active | Activity [13]: Active | Activity [14]: inactive | CC50 [15]: 0.008 µM | Activity [17]: Active | Activity [18]: Dose-dependent effect | Activity [19]: inactive | CC50 [20]: 0.0085 µM | CC50 [21]: 0.006 µM | CC50 [22]: 0.0043 µM | CC50 [23]: 0.343 µM | Activity [24]: inactive | CC50 [25]: 0.0054 µM | CC50 [26]: 0.0373 µM

Oc1ccc(CNCc2ccccc2C(F)(F)F)c2cccnc12
CC50 [7]: 0.2 µM

Oc1ccc(CNCc2ccccc2)c2cccnc12
CC50 [7]: > 1 µM

Oc1ccc(CN(Cc2cccc3ccccc23)Cc2ccc(O)c3ncccc23)c2cccnc12
CC50 [7]: 0.005 µM
